From US8933099B2, “Monocyclic pyridine derivative” (Eisai R&D Management Co., Ltd., priority 2013, dated 2015)
Like-named read-outs stand apart in the source and are kept apart here.

Experiments:
[1] = test system: normal human umbilical vein endothelial cells (HUVEC); test: HUVEC growth inhibition assay (VEGF-induced); assay type: cell-based
Experimental: The absorbance value was measured with ENVISION™ (PerkinElmer Co., Ltd.) at 450 nm. The absorbance values of the wells without adding the test substance but with VEGF addition was defined as 100% and the absorbance values of the wells with neither the test substance nor VEGF addition was defined as 0%.

[2] = test system: human stomach cancer cell line SNU-16 (FGFR2 gene amplification); test: SNU-16 growth inhibition assay; assay type: cell-based
Experimental: In this assay, the growth inhibitory activity of a test substance in a human stomach cancer cell line harboring FGFR2 gene amplification is measured.
Then, 10 μL of Cell Counting Kit-8 (Dojindo Laboratories, CK04) was added to each well, and the resultant was incubated for 1 to 2 hours in a 5% CO2 incubator (37° C.) to cause a color reaction. The absorbance value was measured with ENVISION™ (PerkinElmer Co., Ltd.) at 450 nm.

[3] = Homo sapiens, HUVEC, 72 h, read-out: HUVEC (IC50 (nM)), growth in the presence of VEGF 10 ng/mL, 3 days
[4] = Homo sapiens, SNU-16, 72 h, read-out: SNU-16 (IC50 (nM)), cell growth, 3 days, Cell Counting Kit-8

SMILES	IC50 [1, 3] [nM]	IC50 [2, 4] [nM]	IC50 ([1]; read-out: HUVEC (IC50 (nM)), growth in the presence of VEGF 10 ng/mL, 3 days) [nM]	IC50 ([2]; read-out: SNU-16 (IC50 (nM)), cell growth, 3 days, Cell Counting Kit-8) [nM]
CCOc1cc2c(ccn2C(=O)NC)cc1Oc1ccnc(NC(=O)c2ccc(C3CCN(C(C)C)CC3)cc2)c1 [Example 59]	253	14.5		
CCOCCOc1cc2c(ccn2C(=O)NC)cc1Oc1ccnc(NC(=O)c2ccc(CN3CC[C@@H](O)C3)s2)c1 [Example 100]			207	5.8
CNC(=O)n1ccc2cc(Oc3ccnc(NC(=O)c4ccc(CN5CC[C@H](O)C5)s4)c3)c(OCCOC)cc21 [Example 84]	255	6.2		
CCOc1cc2c(ccn2C(=O)NC)cc1Oc1ccnc(NC(=O)c2ccc(C3CCN(C)CC3)cc2)c1 [Example 64]	175	10.3		
CNC(=O)n1ccc2cc(Oc3ccnc(NC(=O)c4cnn(C5CCN(C[C@H](C)O)CC5)c4)c3)c(OC)cc21 [Example 45]	379	15.5		
CCN1CCC(c2ccc(C(=O)Nc3cc(Oc4cc5ccn(C(=O)NC)c5cc4OCCOC)ccn3)cn2)CC1 [Example 78]	835	6.2		
CCN1CC(c2ccc(C(=O)Nc3cc(Oc4cc5ccn(C(=O)NC)c5cc4OCCOC)ccn3)cc2)C1 [Example 89]	416	6.5		
CCOCCOc1cc2c(ccn2C(=O)NC)cc1Oc1ccnc(NC(=O)c2ccc(C3CCN(C(C)C)CC3)nc2)c1 [Example 94]	607	7.9		
CCN1CCN(CCOc2ccc(C(=O)Nc3cc(Oc4cc5ccn(C(=O)NC)c5cc4OC)ccn3)cc2)CC1 [Example 55]	201	20.8		
CCOCCOc1cc2c(ccn2C(=O)NC)cc1Oc1ccnc(NC(=O)c2ccc(CN3CCC(F)CC3)cc2)c1 [Example 107]	907	22		
CNC(=O)n1ccc2cc(Oc3ccnc(NC(=O)c4ccc(C5CCN(C(C)C)CC5)cc4)c3)c(OC)cc21 [Example 40]	162	8.3		
CCOCCOc1cc2c(ccn2C(=O)NC)cc1Oc1ccnc(NC(=O)c2ccc(CN3CCC[C@H]3CO)cc2)c1 [Example 29]	600	8.8		
CCOCCOc1cc2c(ccn2C(=O)NC)cc1Oc1ccnc(NC(=O)c2ccc(C3CCN(CC)CC3)nc2)c1 [Example 28, 6-(2-Ethoxyethoxy)-5-((2-(6-(1-ethylpiperidin-4-yl)nicotinamide)pyridin-4-yl)oxy)-N-methyl-1H-indole-1-carboxamide]	664	7.3		
CCOc1cc2c(ccn2C(=O)NC)cc1Oc1ccnc(NC(=O)c2ccc(C3CCN(C[C@@H](C)O)CC3)cc2)c1 [Example 60]	178	14.7		
CNC(=O)n1ccc2cc(Oc3ccnc(NC(=O)c4ccc(CN5CCC[C@@H]5CO)s4)c3)c(OC)cc21 [Example 34]	195	14		
CNC(=O)n1ccc2cc(Oc3ccnc(NC(=O)c4ccc(OC5CCN(C[C@@H](C)O)CC5)cc4)c3)c(OC)cc21 [Example 41]	179	9.3		
CNC(=O)n1ccc2cc(Oc3ccnc(NC(=O)c4ccc(CN5CCC(O)CC5)s4)c3)c(OC)cc21 [Example 38]	137	8		
CNC(=O)n1ccc2cc(Oc3ccnc(NC(=O)c4ccc(C5CN(C[C@@H](C)O)C5)cc4)c3)c(OCCCOC)cc21 [Example 118]	183	8.6		
CNC(=O)n1ccc2cc(Oc3ccnc(NC(=O)c4ccc(C5CCN(C[C@@H](C)O)CC5)cc4)c3)c(OCCCOC)cc21 [Example 125]	203	7.2		
CNC(=O)n1ccc2cc(Oc3ccnc(NC(=O)c4ccc(CN5CCC(O)CC5)cc4)c3)c(OC(F)F)cc21 [Example 19, 6-(Difluoromethoxy)-5-((2-(4-((4-hydroxypiperidin-1-yl)methyl)benzamide)pyridin-4-yl)oxy)-N-methyl-1H-indole-1-carboxamide]	151	14.1		
CNC(=O)n1ccc2cc(Oc3ccnc(NC(=O)c4ccc(C5CCN(C[C@@H](C)O)CC5)cc4)c3)c(OC(C)C)cc21 [Example 18, (R)-5-((2-(4-(1-(2-Hydroxypropyl)piperidin-4-yl)benzamide)pyridin-4-yl)oxy)-6-isopropoxy-N-methyl-1H-indole-1-carboxamide]	180	13.9		
CNC(=O)n1ccc2cc(Oc3ccnc(NC(=O)c4ccc(C5CN(C[C@H](C)O)C5)cc4)c3)c(OCCOC)cc21 [Example 81]	126	3.8		
CCN1CCN(CCc2ccc(C(=O)Nc3cc(Oc4cc5ccn(C(=O)NC)c5cc4OC)ccn3)cc2)CC1 [Example 11, 5-((2-(4-(2-(4-Ethylpiperazin-1-yl)ethyl)benzamide)pyridin-4-yl)oxy)-6-methoxy-N-methyl-1H-indole-1-carboxamide]	132	14.5		

SMILES	IC50 [1, 3] [nM]	IC50 [2, 4] [nM]	IC50 ([1]; read-out: HUVEC (IC50 (nM)), growth in the presence of VEGF 10 ng/mL, 3 days) [nM]	IC50 ([2]; read-out: SNU-16 (IC50 (nM)), cell growth, 3 days, Cell Counting Kit-8) [nM]
CNC(=O)n1ccc2cc(Oc3ccnc(NC(=O)c4ccc(CN5CCC(O)CC5)cc4)c3)c(OCCCOC)cc21 [Example 122]	494	11.3		
CCOCCOc1cc2c(ccn2C(=O)NC)cc1Oc1ccnc(NC(=O)c2ccc(CN3CCC[C@@H]3CO)cc2)c1 [Example 104]	600	13.7		
CCN1CCC(n2cc(C(=O)Nc3cc(Oc4cc5ccn(C(=O)NC)c5cc4OC)ccn3)cn2)CC1 [Example 13, 5-((2-(1-(1-Ethylpiperidin-4-yl)-1H-pyrazole-4-carboxamide)pyridin-4-yl)oxy)-6-methoxy-N-methyl-1H-indole-1-carboxamide]	396	10.9		
CNC(=O)n1ccc2cc(Oc3ccnc(NC(=O)c4ccc(OC5CCN(CCO)CC5)cc4)c3)c(OC)cc21 [Example 14, 5-((2-(4-((1-(2-Hydroxyethyl)piperidin-4-yl)oxy)benzamide)pyridin-4-yl)oxy)-6-methoxy-N-methyl-1H-indole-1-carboxamide]	169	9.5		
CNC(=O)n1ccc2cc(Oc3ccnc(NC(=O)c4ccc(C5CCN(C[C@H](C)O)CC5)cc4)c3)c(OCCCF)cc21 [Example 75]	211	7.3		
CNC(=O)n1ccc2cc(Oc3ccnc(NC(=O)c4ccc(C5CCN(CCO)CC5)cc4)c3)c(OC(C)C)cc21 [Example 67]	223	17.6		
CNC(=O)n1ccc2cc(Oc3ccnc(NC(=O)c4ccc(CN5CCC(O)CC5)cc4)c3)c(OCCCF)cc21 [Example 73]	703	17.4		
CNC(=O)n1ccc2cc(Oc3ccnc(NC(=O)c4ccc(CN5CCC[C@@H]5CO)cc4)c3)c(OC)cc21 [Example 50]	394	16.6		
CNC(=O)n1ccc2cc(Oc3ccnc(NC(=O)c4ccc(C5CN(CC(C)(C)O)C5)cc4)c3)c(OC)cc21 [Example 48]	77.8	11.7		
CNC(=O)n1ccc2cc(Oc3ccnc(NC(=O)c4ccc(C5CCNCC5F)cc4)c3)c(OC)cc21 (centres unmarked) [Example 6, 5-((2-(4-(3-Fluoropiperidin-4-yl)benzamide)pyridin-4-yl)oxy)-6-methoxy-N-methyl-1H-indole-1-carboxamide]	180	9.1		
CCOCCOc1cc2c(ccn2C(=O)NC)cc1Oc1ccnc(NC(=O)c2ccc(CN3CCC[C@H]3CO)s2)c1 [Example 99]	224	6.3		
CNC(=O)n1ccc2cc(Oc3ccnc(NC(=O)c4ccc(CN5CCC[C@H]5CO)cc4)c3)c(OC)cc21 [Example 51]	410	12.5		
CCN1CC(c2ccc(C(=O)Nc3cc(Oc4cc5ccn(C(=O)NC)c5cc4OC)ccn3)cc2)C1 [Example 49]	163	9.6		
CCOc1cc2c(ccn2C(=O)NC)cc1Oc1ccnc(NC(=O)c2ccc(C3CCN(CCO)CC3)cc2)c1 [Example 63]	170	9.6		
CNC(=O)n1ccc2cc(Oc3ccnc(NC(=O)c4ccc(CN5CCC(O)CC5)cc4)c3)c(OC(C)C)cc21 [Example 70]	610	22.4		
CNC(=O)n1ccc2cc(Oc3ccnc(NC(=O)c4ccc(CN5C[C@@H](C)N[C@@H](C)C5)s4)c3)c(OC)cc21 [Example 36]	136	11		
CCOCCOc1cc2c(ccn2C(=O)NC)cc1Oc1ccnc(NC(=O)c2ccc(CN3CCN(CC)CC3)cc2)c1 [Example 108]	363	14.7		
CNC(=O)n1ccc2cc(Oc3ccnc(NC(=O)c4ccc(CN5CCC[C@@H]5CO)s4)c3)c(OCCOC)cc21 [Example 82]	264	6.2		
CNC(=O)n1ccc2cc(Oc3ccnc(NC(=O)c4cnn(C5CCN(C[C@@H](C)O)CC5)c4)c3)c(OC)cc21 [Example 44]	392	16.3		
CNC(=O)n1ccc2cc(Oc3ccnc(NC(=O)c4ccc(OCCN5CCC(O)CC5)cc4)c3)c(OC)cc21 [Example 12, 5-((2-(4-(2-(4-Hydroxypiperidin-1-yl)ethoxy)benzamide)pyridin-4-yl)oxy)-6-methoxy-N-methyl-1H-indole-1-carboxamide]	141	13		
CNC(=O)n1ccc2cc(Oc3ccnc(NC(=O)c4ccc(C5CN(C(C)C)C5)cc4)c3)c(OC)cc21 [Example 47]	174	13.1		
CNC(=O)n1ccc2cc(Oc3ccnc(NC(=O)c4cnn(C5CCN(C(C)C)CC5)c4)c3)c(OC)cc21 [Example 46]	402	17.4		
CNC(=O)n1ccc2cc(Oc3ccnc(NC(=O)c4ccc(C5CCN(C)CC5)cc4)c3)c(OCCCOC)cc21 [Example 130]	254	6.8		
